Laboratory results published in US20060094017A1, “Immunogens for hiv vaccine” (priority 2003, published 2006).

Key:
Mab 2G12 [1] = test: BIACore (SPR) binding of Mab 2G12 to mimotopes displayed on phage captured by anti-M13 antibody; set-up: species or system human; details: round three phage-displayed mimotope (pIII) captured via anti-M13 on RAMFc CM5 chip; 25 μl Mab 2G12 at 100 μg/ml
Description: BIACore confirmation of mimotope binding to Mab 2G12 was determined for four of the identified peptide sequences disclosed in the present application. For the first assay, a batch of individually selected phage was prepared from the transduced E. coli cells described in Example 2. The phage were concentrated by PEG precipitation to be used in the assay. Initially, a murine anti-phage pVIII monoclonal antibody (anti-M13) is captured by a BIACore CM5 chip that is coated with a standard rabbit anti-mouse (Fc) antibody (RAMFc). The anti-M13 antibody captures the chimeric phage selected from the panning procedure described in Example 2. Mab 2G12 is then flowed over the chip in order to describe and confirm binding of the antibody to the captured chimeric phage pIII.
Specifically, RAMFc was first immobilized on the gold surface of the BIACore CM5 chip (Uppsala, Sweden) containing dextran by amine coupling. Twenty-five microliters of anti-M13 antibody (Amersham Pharmacia Biotech, Piscataway, N.J.), at 1 mg/ml, was injected into the flowcell containing the chip at a flow rate of […] and captured by the immobilized RAMFc. The captured anti-M13 was measured in resonance units (RU). After completing the initial control tests of the flowcell, the chip was regenerated by injecting 10 μl of 20 mM HCL, 3 times, into the flowcell. To determine whether Mab 2G12 can detect the mimotopes isolated in the panning procedure described herein, 25 μl of anti-M13 at 1 mg/ml was first injected into the flowcell. Fifty microliters of the round three phage preparation of the mimotope sequence identified by SEQ ID NO:3, WKIPDHGIVVFSWFP, at >1×10^10 phage particles per ml, was injected into the flowcell. This was followed by 25 μl of Mab 2G12 at 100 μg/ml. The amount of Mab 2G12 captured on the chip was subsequently measured in RUs. This procedure was repeated for the following round three mimotopes: RSGHKVWVVSTKESS (SEQ ID NO:1), KCCFAESSRSGTGRY (SEQ ID NO:2) and VLRLMECHFQCVPSL (SEQ ID NO:4). […] Of the four mimotopes tested by this procedure, RSGHKVWVVSTKESS (SEQ ID NO:1) bound Mab 2G12 the tightest at 312 RUs. In comparison, KCCFAESSRSGTGRY (SEQ ID NO:2) bound at 120 RUs, WKIPDHGIVVFSWFP (SEQ ID NO:3) bound at 24 RUs, and VLRLMECHFQCVPSL (SEQ ID NO:4) bound at 17 RUs.

Mab 2G12 [2] = test: BIACore (SPR) binding of Mab 2G12 to biotinylated synthetic mimotope peptides on streptavidin chip; set-up: species or system human; details: synthetic biotinylated mimotope peptide (500 μg/ml) on streptavidin chip; 100 μl Mab 2G12 at 0.25 μg/μl, 5 μl/min
Description: Surface plasmon resonance was also used to confirm the binding of synthetic mimotope peptides identified from the panning procedure described in Example 2 to Mab 2G12. In this assay, a solution of biotinylated mimotope peptide is injected into a flowcell containing a BIACore chip coated with streptavidin. The biotin-streptavidin interaction immobilizes the synthetic mimotope peptide on the chip surface. Mab 2G12 is then injected into the flowcell to determine if the antibody recognizes and is captured by the bound mimotope. Specifically, the streptavidin BIACore chip was warmed to room temperature for 30 minutes. The chip was then docked and primed 2× with HBS-EP (0.01M HEPES, pH 7.4, 0.15M NaCl, 3 mM EDTA, 0.005% Surfactant P20) and conditioned for three cycles with 1M NaCl/50 mM NaOH. Each synthesized, biotinylated mimotope peptide was diluted 1:2 in HBS (0.01M HEPES, pH 7.4) to a final concentration of 500 μg/ml. Seventy-five microliters of each mimotope peptide was then injected into the flowcell at a flow rate of 5 μl/min. Mab 2G12 was resuspended in sterile water to a concentration of 0.25 μg/μl, and 100 μl of the antibody was injected into the flowcell containing the captured synthetic peptide at a flow rate of 5 μl/min. The captured Mab2G12 was measure in RUs. Of the mimotopes tested by this procedure, the synthetic peptide represented by SEQ ID NO:3, WKIPDHGIVVFSWFP, bound Mab 2G12 the tightest at 1193 RUs. In comparison, RSGHKVWVVSTKESS (SEQ ID NO:1) bound at 117 RUs, VLRLMECHFQCVPSL (SEQ ID NO:4) bound at 133 RUs, and TLKSLPYRAVLGAQA (SEQ ID NO:5) bound at 37 RUs. […] Thus, the mimotope represented by SEQ ID NO:2 binds to Mab 2G12 more efficiently as a multivalent structure (e.g., when within the pIII on the tip of the filamentous phage particle).

KCCFAESSRSGTGRY (Synthetic peptide mimotope) [SEQ ID NO:2]
amount of Mab 2G12 captured on the chip (Mab 2G12 [1]): 120 RUs | captured Mab 2G12 (Mab 2G12 [2]): no binding

RSGHKVWVVSTKESS (Synthetic peptide mimotope) [SEQ ID NO:1]
amount of Mab 2G12 captured on the chip (Mab 2G12 [1]): 312 RUs | captured Mab 2G12 (Mab 2G12 [2]): 117 RUs

TLKSLPYRAVLGAQA (Synthetic peptide mimotope) [SEQ ID NO:5]
captured Mab 2G12 (Mab 2G12 [2]): 37 RUs

VLRLMECHFQCVPSL (Synthetic peptide mimotope) [SEQ ID NO:4]
amount of Mab 2G12 captured on the chip (Mab 2G12 [1]): 17 RUs | captured Mab 2G12 (Mab 2G12 [2]): 133 RUs

WKIPDHGIVVFSWFP (Synthetic peptide mimotope) [SEQ ID NO:3]
amount of Mab 2G12 captured on the chip (Mab 2G12 [1]): 24 RUs | captured Mab 2G12 (Mab 2G12 [2]): 1193 RUs
